Source: patent publication US8541397B2, “Alkyne and alkene derivatives as sphingosine 1-phosphate-1 receptor modulators” (Allergan, Inc., priority 2010, dated 2013)
pEC50: −log10 of the molar value.

molecular target: T1, human S1P1 receptor (Homo sapiens, UniProt P21453); experiment: GTP γ35S binding assay for S1P1 activity; format: biochemical; conditions: activity potency, S1P1 receptor from GTP γ35S binding; membranes; test compounds 0.08 to 5,000 nM
T1 construct: expressed in transfected cells; membranes used
Protocol: Compounds were synthesized and tested for S1P1 activity using the GTP γ^35S binding assay. These compounds may be assessed for their ability to activate or block activation of the human S1P1 receptor in cells stably expressing the S1P1 receptor.
GTP γ^35S binding was measured in the medium containing (mM) HEPES 25, pH 7.4, MgCl2 10, NaCl 100, dithitothreitol 0.5, digitonin 0.003%, 0.2 nM GTP γ^35S, and 5 μg membrane protein in a volume of 150 μl. Test compounds were included in the concentration range from 0.08 to 5,000 nM unless indicated otherwise. Membranes were incubated with 100 μM 5′-adenylylimmidodiphosphate for 30 min, and subsequently with 10 μM GDP for 10 min on ice. Drug solutions and membrane were mixed, and then reactions were initiated by adding GTP γ^35S and continued for 30 min at 25° C. Reaction mixtures were filtered over Whatman GF/B filters under vacuum, and washed three times with 3 mL of ice-cold buffer (HEPES 25, pH7.4, MgCl2 10 and NaCl 100). Filters were dried and mixed with scintillant, and counted for ^35S activity using a β-counter. Agonist-induced GTP γ^35S binding was obtained by subtracting that in the absence of agonist. Binding data were analyzed using a non-linear regression method. In case of antagonist assay, the reaction mixture contained 10 nM S1P in the presence of test antagonist at concentrations ranging from 0.08 to 5000 nM.

T1 sequence (P21453 whole entry): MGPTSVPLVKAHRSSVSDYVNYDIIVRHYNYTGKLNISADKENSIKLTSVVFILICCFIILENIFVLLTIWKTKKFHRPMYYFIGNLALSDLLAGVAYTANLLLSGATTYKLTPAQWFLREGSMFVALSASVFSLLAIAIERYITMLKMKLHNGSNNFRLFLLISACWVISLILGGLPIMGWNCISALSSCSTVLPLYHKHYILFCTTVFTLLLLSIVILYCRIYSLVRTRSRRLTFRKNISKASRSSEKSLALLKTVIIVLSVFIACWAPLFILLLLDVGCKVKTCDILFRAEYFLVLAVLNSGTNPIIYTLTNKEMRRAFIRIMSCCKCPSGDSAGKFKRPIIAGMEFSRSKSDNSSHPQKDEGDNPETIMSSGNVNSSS

Compound | pEC50
COc1cccc(C(C#Cc2ccc(CNCCC(=O)O)cc2)Cc2ccc(C)c(C)c2)c1 (stereo not drawn) [Compound 1, 3-({4-[4-(3,4-dimethylphenyl)-3-(3-methoxyphenyl)but-1-yn-1-yl]benzyl}amino)propanoic acid] | 6.61
Cc1ccc(CC(C#Cc2ccc(CNCCC(=O)O)cc2C)c2cccc(Cl)c2)cc1C (stereo not drawn) [Compound 2, 3-{4-[3-(3-Chloro-phenyl)-4-(3,4-dimethyl-phenyl)-but-1-ynyl]-3-methyl-benzylamino}-propionic acid] | 6.58
Cc1ccc(CC(C#Cc2ccc(CNCCC(=O)O)cc2)c2cccc(Cl)c2)cc1C (stereo not drawn) [Compound 3, 3-({4-[3-(3-chlorophenyl)-4-(3,4-dimethylphenyl)but-1-yn-1-yl]benzyl}amino)propanoic acid] | 7.18
Cc1cccc(C(C#Cc2ccc(CNCCC(=O)O)cc2)Cc2ccc(C)c(C)c2)c1 (stereo not drawn) [Compound 4, 3-({4-[4-(3,4-dimethylphenyl)-3-(3-methylphenyl)but-1-yn-1-yl]benzyl}amino)propanoic acid] | 6.30
Cc1ccc(CC(C#Cc2ccc(CNCCC(=O)O)cc2)c2ccc(Cl)cc2)cc1C (stereo not drawn) [Compound 5, 3-({4-[3-(4-chlorophenyl)-4-(3,4-dimethylphenyl)but-1-yn-1-yl]benzyl}amino)propanoic acid] | 6.32
COc1cccc(C(C#Cc2ccc(CNCCCP(=O)(O)O)cc2)Cc2ccc(C)c(C)c2)c1 (stereo not drawn) [Compound 7, (3-{4-[4-(3,4-Dimethyl-phenyl)-3-(3-methoxy-phenyl)-but-1-ynyl]-benzylamino}-propyl)-phosphonic acid] | 6.80
Cc1ccc(CC(C#Cc2ccc(CNCCCP(=O)(O)O)cc2)c2cccc(Cl)c2)cc1C (stereo not drawn) [Compound 8, (3-{4-[3-(3-Chloro-phenyl)-4-(3,4-dimethyl-phenyl)-but-1-ynyl]-benzylamino}-propyl)-phosphonic acid] | 7.12
Cc1cccc(C(C#Cc2ccc(CNCCCP(=O)(O)O)cc2)Cc2ccc(C)c(C)c2)c1 (stereo not drawn) [Compound 9, (3-{4-[4-(3,4-Dimethyl-phenyl)-3-m-tolyl-but-1-ynyl]-benzylamino}-propyl)-phosphonic acid] | 6.93
Cc1ccc(CC(C#Cc2ccc(CNCCCP(=O)(O)O)cc2C)c2cccc(Cl)c2)cc1C (stereo not drawn) [Compound 10, (3-{4-[3-(3-Chloro-phenyl)-4-(3,4-dimethyl-phenyl)-but-1-ynyl]-3-methyl-benzylamino}-propyl)-phosphonic acid] | 7.75
Cc1cccc(C(C#Cc2ccc(CNCCCP(=O)(O)O)cc2C)Cc2ccc(C)c(C)c2)c1 (stereo not drawn) [Compound 11, [3-({4-[4-(3,4-dimethylphenyl)-3-(3-methylphenyl)but-1-yn-1-yl]-3 methylbenzyl}amino)propyl]phosphonic acid] | 7.25
Cc1ccc(CC(C#Cc2ccc(CNCCCP(=O)(O)O)cc2C)c2cccc(F)c2)cc1C (stereo not drawn) [Compound 12, [3-({4-[4-(3,4-dimethylphenyl)-3-(3-fluorophenyl)but-1-yn-1-yl]-3-methylbenzyl}amino)propyl]phosphonic acid] | 5.72
Cc1ccc(CC(C#Cc2ccc(CNCCCP(=O)(O)O)cc2Br)c2cccc(F)c2)cc1C (stereo not drawn) [Compound 13, [3-({3-bromo-4-[4-(3,4-dimethylphenyl)-3-(3-fluorophenyl)but-1-yn-1-yl]benzyl}amino)propyl]phosphonic acid] | 8.22
Cc1ccc(CC(C#Cc2ccc(CNCCCP(=O)(O)O)cc2-c2ccco2)c2cccc(F)c2)cc1C (stereo not drawn) [Compound 14, [3-({4-[4-(3,4-dimethylphenyl)-3-(3-fluorophenyl)but-1-yn-1-yl]-3-(2-furyl)benzyl}amino)propyl]phosphonic acid] | 6.62
Cc1cccc(C(C#Cc2ccc(CNCCCP(=O)(O)O)cc2-c2cccs2)Cc2ccc(C)c(C)c2)c1 (stereo not drawn) [Compound 15, [3-({4-[4-(3,4-dimethylphenyl)-3-(3-methylphenyl)but-1-yn-1-yl]-3-(2-thienyl)benzyl}amino)propyl]phosphonic acid] | 6.75
Cc1ccc(CC(C#Cc2ccc(CNCCCP(=O)(O)O)cc2Br)c2cc(F)cc(F)c2)cc1C (stereo not drawn) [Compound 16, [3-({3-bromo-4-[3-(3,5-difluorophenyl)-4-(3,4-dimethylphenyl)but-1-yn-1-yl]benzyl}amino)propyl]phosphonic acid] | 7.51
Cc1cccc(C(C#Cc2ccc(CNCCCP(=O)(O)O)cc2-c2ccco2)Cc2ccc(C)c(C)c2)c1 (stereo not drawn) [Compound 17, [3-({4-[4-(3,4-dimethylphenyl)-3-(3-methylphenyl)but-1-yn-1-yl]-3-(2-furyl)benzyl}amino)propyl]phosphonic acid] | 7.23
Cc1ccc(CC(C#Cc2ccc(OCC(O)CO)c(Cl)c2)c2cccc(Cl)c2)cc1C (stereo not drawn) [Compound 19, 3-{2-chloro-4-[3-(3-chlorophenyl)-4-(3,4-dimethylphenyl)but-1-yn-1-yl]phenoxy}propane-1,2-diol] | 6.62
Cc1ccc(CC(C#Cc2ccc(OCC(O)CO)c(Cl)c2)c2cccc(F)c2)cc1C (stereo not drawn) [Compound 20, 3-{2-chloro-4-[4-(3,4-dimethylphenyl)-3-(3-fluorophenyl)but-1-yn-1-yl]phenoxy}propane-1,2-diol] | 6.22
Cc1cccc(C(C#Cc2ccc(OCC(O)CO)c(Cl)c2)Cc2ccc(C)c(C)c2)c1 (stereo not drawn) [Compound 21, 3-{2-chloro-4-[4-(3,4-dimethylphenyl)-3-(3-methylphenyl)but-1-yn-1-yl]phenoxy}propane-1,2-diol] | 6.40
Cc1ccc(CC(/C=C/c2ccc(CNCCC(=O)O)cc2)c2cccc(F)c2)cc1C (stereo not drawn) [Compound 22, 3-({4-[(1E)-4-(3,4-dimethylphenyl)-3-(3-fluorophenyl)but-1-en-1-yl]benzyl}amino)propanoic acid] | 6.58
Cc1ccc(CC(/C=C/c2ccc(CNCCCP(=O)(O)O)cc2)c2cccc(F)c2)cc1C (stereo not drawn) [Compound 23, [3-({4-[(1E)-4-(3,4-dimethylphenyl)-3-(3-fluorophenyl)but-1-en-1 yl]benzyl}amino)propyl]phosphonic acid] | 6.76
